Results taken from publication PMC12040169 (PLOS Biology, 2025).

Test: in vitro
Conditions: human, hela cells

Row | Compound | viability at 28.5 h, 10 µM (% viability) [%] | viability at 28.5 h, 10 µM [%]
1 | CNCCc1n[nH]c(N)n1 [CBK020959] | 89.4 | –
2 | COc1ccc2nc(N/C(N)=N/C(=O)COc3ccc(Cl)cc3)nc(C)c2c1 [CBK263924] | 95 | –
3 | CC1(C)C[C@H](NC(=O)c2ccccc2)[C@@]2(CCC(=O)NC3CC3)CC[C@](C)(O)C[C@@H]12 [CBK289045] | 92.6 | –
4 | COc1ccccc1C(=O)N1CCC(Cc2ccc(-c3cccc(C)c3)cc2)(C(N)=O)CC1 [CBK285792] | 89.8 | –
5 | Cc1[nH]c(=O)[nH]c(=O)c1CC(=O)N1Cc2cc(Cl)ccc2OC2(CCOCC2)C1 [CBK286341] | 93 | –
6 | OCCNc1nccnc1-c1ccc2c(c1)OCO2 [CBK088984] | 95 | –
7 | O=C(Cc1ccc(F)cc1Cl)N1CCC(O)(c2ccccn2)CC1 [CBK283755] | 98.1 | –
8 | NS(=O)(=O)c1ccc(NC(=O)CSc2nc3sc4c(c3c(=O)n2-c2ccc(Cl)cc2)CCCC4)cc1 [CBK267577] | 91.9 | –
9 | Cc1nnc([C@H]2CCN(Cc3ccc4c(c3)OCO4)C2)o1 [CBK289392] | 111 | –
10 | O=C(/C=C/c1cccc([N+](=O)[O-])c1)NC(=S)Nc1ccc(-c2nc3ncccc3o2)cc1 [CBK264391] | 99.2 | –
11 | O=C(C1CCC1)N1CC(n2nc(-c3ccccc3)ccc2=O)C1 [CBK284624] | 79.2 | –
12 | O=C(CCn1cnc2cc(-c3noc(-c4cnccn4)n3)ccc21)N1CCCC1 [CBK288595] | 104 | –
13 | CN(C(=O)c1ccccc1N)c1ccccc1 [CBK086716] | 97.6 | –
14 | CN(Cc1ccccc1)c1nc2c(c(=O)n(C)c(=O)n2C)n1CCSc1ncccn1 [CBK269564] | 97.7 | –
15 | Cc1ccc(S(=O)(=O)N[C@H]2CO[C@H]3[C@@H]2OC[C@@H]3n2nnnc2Oc2ccccc2)cc1 [CBK289485] | 82.4 | –
16 | O=C(/C=C/c1cn(C2CC(O)C(CO)O2)c(=O)[nH]c1=O)NCCNC(=O)C(F)(F)F (stereo not drawn) [CBK201214] | 98.2 | –
17 | Clc1ccc(SCCCSc2ncccn2)cc1 [CBK266400] | 96.8 | –
18 | Cc1cc(=[N+]2CCCCC2)cc(C)o1 [CBK022824I] | 96.7 | –
19 | COc1ccc(C(C)C)cc1-c1cnc2[nH]c(=O)n(CCc3cccnc3)c2n1 [CBK064343] | 90.4 | –
20 | Cc1ccc(OC(C)C(=O)Nc2ccccc2C(=O)N2CCN(C)CC2)cc1 (stereo not drawn) [CBK269802] | 88.6 | –
21 | O=C(Nc1nnc(-c2ccc3c(c2)OCCO3)o1)c1ccc2c(c1)OCCO2 [CBK287403] | 84.5 | –
22 | CCOC(=O)C1=C(C)NC(=S)NC1c1ccc(O)c(OCC)c1[N+](=O)[O-] (stereo not drawn) [CBK265624] | 102 | –
23 | COC(=O)c1ccsc1NS(=O)(=O)c1ccc(C)c([N+](=O)[O-])c1 [CBK039061] | 92.2 | –
24 | COc1cc(C(=O)Nc2cc(-c3nc4ncccc4o3)ccc2C)cc(OC)c1OC [CBK101133] | 97 | –
25 | N#CC(CCCN1CCC(O)(c2ccccc2)CC1)(c1ccccc1)c1ccccc1 [CBK002145] | – | 105
26 | CNC(=S)N(Cc1ccc(S(N)(=O)=O)cc1)C1CC(=O)N(c2ccc(OC)cc2)C1=O (stereo not drawn) [CBK262940] | 95.1 | –

Row | Compound | viability at 28.5 h, 10 µM (% viability) [%] | viability at 28.5 h, 10 µM [%]
27 | COCCn1c(CO)nnc1[C@H]1C[C@@H](NC(=O)c2ccc(O)c(F)c2)C1 [CBK307132] | 74.1 | –
28 | Fc1ccccc1-c1nccnc1NCc1ccncc1 [CBK037540] | 101 | –
29 | O=C(NC(=S)Nc1cccc(-c2nc3cc(Cl)ccc3o2)c1)c1ccccc1Br [CBK263973] | 95.8 | –
30 | O=C(O)C1CCN(Cc2cnnn2-c2ccccc2F)CC1 [CBK287197] | 82.1 | –
31 | COc1ccc(C(=O)CN2CCC3(CC2)CC(=O)c2cc(Br)ccc2O3)cc1 [CBK162265] | 114 | –
32 | COc1ccc(Oc2cncc(OC3CCN(CCc4ccc(F)cc4)C3)n2)cc1OC (stereo not drawn) [CBK084409] | 94.1 | –
33 | Cc1ccn2cc(CNC(=O)N(C)CCc3scnc3C)nc2c1 [CBK307379] | 87.5 | –
34 | COc1ccc(S(=O)(=O)NCCN2CCOCC2)c(C)c1C [CBK266479] | 99.4 | –
35 | Cc1ccc2c(c1)C(=O)NCC1(CCN(C(=O)c3ccco3)CC1)O2 [CBK282894] | 100 | –
36 | Cc1cc(C(F)(F)F)nc(CCNC(=O)N(Cc2ccsc2)C2CC2)n1 [CBK307468] | 107 | –
37 | CN(C)CC1CN(c2nc(-c3ccncc3)nc3c2CCC3)CCO1 (stereo not drawn) [CBK305824] | 83 | –
38 | O=C(O)c1ccc(S(=O)(=O)N2CCOCC2)cc1 [CBK287201] | 82.2 | –
39 | CC(C)N1CCCC(CNC(=O)c2cc(C3CCCCC3)no2)C1 (stereo not drawn) [CBK283294] | 97.2 | –
40 | O=C1OCC(O)=C1C(c1ccccc1)C1CC1 (stereo not drawn) [CBK010731] | 91 | –
41 | CC(=O)N(C)c1nc(-c2ccccc2)ccc1C(=O)Nc1ccc2c(c1)OCO2 [CBK106342] | 96.8 | –
42 | O=C(COc1ccc2ccccc2c1)N1CCN(S(=O)(=O)c2ccccc2[N+](=O)[O-])CC1 [CBK264271] | 91.8 | –
43 | CCNc1ncc(C(=O)N2CCOC(c3ccc(F)c(C)c3)C2)s1 (stereo not drawn) [CBK306375] | 95.4 | –
44 | Cc1occc1SCC(=O)Nc1ccc(CN2CCOCC2)cc1 [CBK306453] | 89.9 | –
45 | CN1CCN(C(=O)C2CCN(CCCc3ccccc3)CC2)CC1 [CBK264326G] | 96 | –
46 | Cn1ncc2c(SCc3cc4c(cc3Br)OCCO4)ncnc21 [CBK297732] | 104 | –
47 | CCc1ncc2c(n1)CN(Cc1cc(=O)n3cccc(C)c3n1)CC2 [CBK305914] | 84.6 | –
48 | Cc1ccc2oc(C(=O)N3CCC(Oc4cccnc4)CC3)cc2c1 [CBK281498] | 106 | –
49 | O=C(Nc1cccnc1)N1CCc2ccccc2C1 [CBK155312] | 100 | –
50 | Cc1nn(Cc2ccc(C(=O)Nc3c(C)nn(Cc4ccc(Cl)c(Cl)c4)c3C)o2)c(C)c1Br [CBK265855] | 83.5 | –
51 | O=C(O)C1(NS(=O)(=O)c2ccc(F)c(Cl)c2)CCCCC1 [CBK267276] | 98.2 | –
52 | CC(C)c1ccc(Cc2cnc(NC(=O)c3cc(Br)cs3)s2)cc1 [CBK300503] | 88.7 | –

Row | Compound | viability at 28.5 h, 10 µM (% viability) [%] | viability at 28.5 h, 10 µM [%]
53 | NC(=O)c1c(NC(=O)NCc2cccnc2)sc2c1CCC2 [CBK307578] | 70.3 | –
54 | CCC(CC)C(=O)Nc1nc(OC)cnc1-c1ccc(OCOC)cc1 [CBK145207] | 108 | –
55 | Cc1ccc(C)c(-c2csc3c(=O)[nH]cnc23)c1 [CBK288556] | 101 | –
56 | O=C(c1ccc(F)cc1)N1C[C@@H](c2ccsc2)[C@@H]2CN(Cc3ccccc3)CC[C@@H]21 [CBK285635] | 94.7 | –
57 | COc1ccc(S(=O)(=O)N2CCN(C(=O)COc3ccc(C)cc3)CC2)cc1 [CBK263354] | 90.2 | –
58 | FC(F)(F)c1ccc(OCCOc2ccccc2)nc1 [CBK115829] | 80.4 | –
59 | COc1ccc(C(=O)Nc2nc3c(C)c(C)ccc3s2)cc1 [CBK291210] | 107 | –
60 | O=C(NC(c1ccc(F)cc1)c1cccs1)c1ccccn1 (stereo not drawn) [CBK295636] | 106 | –
61 | COc1ccc(CN2Cc3nc[nH]c3C[C@H]2C(=O)N2CCC(Cc3ccccc3)CC2)cc1 [CBK288980] | 110 | –
62 | Cc1cccn2cc(CCNC(=O)CN3Cc4ccccc4C3)nc12 [CBK305166] | 101 | –
63 | CC(C)(CN)CN(Cc1ccccc1C(F)(F)F)C(=O)Nc1ccc(Cl)cc1Cl [CBK026832C] | 93.5 | –
64 | CCCN1CCN(c2ncc(CNS(=O)(=O)c3ccc(Cl)cc3)cn2)CC1 [CBK010261] | 101 | –
65 | COc1c[nH]c(C(=O)NC(CCn2ccnc2)c2ccccc2)cc1=O (stereo not drawn) [CBK306743] | 94 | –
66 | COc1ccc(CCNC(=O)N(C)C2CCN(C)C2)cc1OC (stereo not drawn) [CBK156007] | 97.9 | –
67 | Cc1ccc(-c2nnn(CC(=O)N(CCO)C(C(=O)NC3CCCC3)c3ccc(F)cc3)n2)o1 (stereo not drawn) [CBK084756] | 89.2 | –
68 | COc1ccc(C2CCCC(N(CCN(C)C)C(=O)Nc3ccc(F)c(F)c3)C2)cc1OC (stereo not drawn) [CBK059339C] | 84.8 | –
69 | O=C(C1CC1)N1CC2CN(Cc3ccccc3)CC2C12CCOCC2 (stereo not drawn) [CBK283055] | 103 | –
70 | c1ccc(-c2nc(C3CC3)n3ccccc23)cc1 [CBK149257] | 94.1 | –
71 | COc1ccc(C(C)C)cc1-c1ccc(C(=O)N2CCN(C)CC2)c(N(C)C)n1 [CBK106130] | 88 | –
72 | CCOc1cc(CN2CCN(C/C=C/c3ccccc3)CC2)ccc1OC [CBK261573] | 87.2 | –
73 | C=CCSc1nnc(OC(=O)N(C)C)n1-c1ccc(Cl)cc1 [CBK004817] | – | 90.8
74 | O=C(CCCCCN1C(=O)c2ccccc2C1=O)Nc1cccc(C(=O)O)c1 [CBK287261] | 85.4 | –
75 | OC(CNC1CCN(Cc2ccccc2)CC1)COc1ccc2c(c1)OCO2 (stereo not drawn) [CBK074645] | 96.5 | –
76 | CCCC1CCN(c2ncnc(Oc3ccc(C(=O)c4ccc(F)cc4)cc3)c2[N+](=O)[O-])CC1 [CBK116495] | 85 | –
77 | Cc1cc(NC(=O)Cc2ccsc2)c2ccccc2n1 [CBK116259] | 89.4 | –
78 | Cc1oc(NC(=O)CN(C)Cc2cccc(F)c2)c(C#N)c1C [CBK305609] | 90.9 | –
